Experimental data as given in patent US7432353B2, “Fluorescent indicator proteins” (priority 2005, dated 2008).

Key:
[1] = molecular target: T1, E. coli ALBP (allose binding protein) fusion protein CalsBY-QV (Gln-Val between ECFP and ALBP), SEQ ID NO: 36 (Escherichia coli, UniProt P39265); experiment: Allose titration and sugar specificity of FRET sensor CalsBY-QV
T1 construct: made in house; host or cells: E. coli JM109 (DE3)

[2] = molecular target: T2, E. coli RBP (ribose binding protein) fusion protein CrbsBY-ND (Asn-Asp between ECFP and RBP), SEQ ID NO: 38 (Escherichia coli, UniProt P02925); experiment: Ribose titration and sugar specificity of FRET sensor CrbsBY-ND; conditions: for affinity (substrate specificity): in words, FIG. 12C
T2 construct: made in house; host or cells: E. coli JM109 (DE3)
Procedure: (§1) The fluorescence analysis of the MBP fusion proteins expressed and purified in Example 2 was performed using fluorescence spectrophotometer Cary Eclipse (Varian, Australia) at 25° C., and the MBP fusion proteins were diluted in PBS buffer (pH 7.4) to the same concentrations of 0.2 μM. To define the FRET efficiency in the fluorescence analysis, the emission intensity ratio between the emission intensity of ECFP at 480 nm, measured at an excitation wavelength of 436 nm, and the emission intensity of EYFP at 530 nm, caused by FRET, was substituted into Equation 3 below for convenience: Ratio=[530 nm/480 nm] [Equation 3]
(§2) Profiles of the ratios at wide substrate concentrations were fit by a four-parameter Hill equation with SigmaPlot (SSI, USA) and the binding substance concentration corresponding to the medium between ratio10 mM and ratioapo was determined to be the dissociation constant (Kd) of the fusion proteins.
(§3) The selection of PBPs to be introduced into the MBP position was performed by collecting data from SCOP (Structural Classification of Proteins; http://scop.mrc-lmb.cam.ac.uk/scop/), and then investigating the kinetic change of three-dimensional structures which is accompanied by substrate binding in PDB (Protein Data Bank, http://www.rcsb.org/pdb/). For example, three kinds of E. coli-derived PBPs such as ALBP, RBP, and ARBP were introduced into the MBP site of the MBP fusion proteins according to the present invention. For this purpose, the genetic sequence information of said PBPs was secured from Swiss-Prot (http://kr.expasy.org/), and on the basis of the information, primers capable of amplifying genes encoding the PBPs were constructed. The genes were amplified by performing PCR from the chromosome of E. coli MG1655 using the constructed primers.
(§4) The fusion protein expression vectors constructed in the form of libraries as described above were transformed into E. coli JM109 (DE3), and 3-5 bacterial strains transformed with vectors were randomly selected from each of the libraries without carrying out the screening process described in Example 4, and were expressed and purified according to the method of Example 2. Then, the various PBP fusion proteins were subjected to analyze the fluorescence characteristics to each of substances, and sugar sensors (the fluorescent indicator proteins for detection of sugar) having the highest signal intensity were selected. As a result, as shown on FIGS. 11A, 11B and 11C, and Table 2 below, CalsBY-QV of SEQ ID NO: 36, CaraFY-PR of SEQ ID NO: 37 and CrbsBY-ND of SEQ ID NO: 38 could be secured.
(§5) To examine the substrate affinity of said three kinds of fusion proteins, the substrate specificity thereof for a variety of sugars was analyzed.

[3] = molecular target: T3, E. coli ARBP (arabinose binding protein) fusion protein CaraFY-PR (Pro-Arg between ECFP and ARBP), SEQ ID NO: 37 (Escherichia coli, UniProt P02924); experiment: Arabinose titration and sugar specificity of FRET sensor CaraFY-PR; conditions: for affinity (substrate specificity): in words, FIG. 12B
T3 construct: made in house; host or cells: E. coli JM109 (DE3)
Procedure: as §1, §2, §3, §4, §5

[4] = molecular target: T4, MBP (maltose binding protein) fusion protein CMY-LH (Leu-His between ECFP and MBP), SEQ ID NO: 32 (Escherichia coli, UniProt P0AEX9); experiment: Maltose titration and sugar specificity of FRET sensor CMY-LH; conditions: for affinity (substrate specificity): in words, FIG. 8A, 10 mM for d-glucose and melezitose, change attributed to contamination of trace maltose
T4 construct: made in house; host or cells: E. coli JM109 (DE3)
Procedure: as §1, §2

[5] = molecular target: T5, SBP (sucrose binding protein; MBP mutant Asp14Leu, Lys15Phe, Trp62Tyr, Glu111Tyr) fusion protein CSY-LH, SEQ ID NO: 39 (Escherichia coli, UniProt P0AEX9, D40L/E137Y/K41F/W88Y); experiment: Sucrose and maltose titration and sugar specificity of FRET sensor CSY-LH; conditions: for Quantification range: range between 10 and 90% saturation
T5 construct: made in house; host or cells: E. coli JM109 (DE3)
Procedure: as §1, §2
(§6) The MBP-encoding gene to be used as a template was a pMALc2x vector (NEB, USA), and to make the SBP gene, PCR was performed using primers of SEQ ID NOs: 27, 28, 29 and 11. Because the above-amplified gene contains partial mutations in MBP, including a substitution of Asp14 with Leu, a substitution of Lys15 with Phe, a substitution of Trp62 with Tyr, and a substitution of Glu111 with Tyr, it encodes the SBP gene capable of binding to sucrose, as reported in the prior art (Guntas, G. et al., PNAS, 102:11224, 2005).
(§7) The above SBP fusion protein expression vectors were transformed into E. Coli JM109 (DE3), expressed and purified according to the method of Example 3.
The CSY-LH was analyzed for binding affinity for a variety of sugars.

[6] = molecular target: T6, MBP (maltose binding protein) fusion protein CMY-QI (Gln-Ile between ECFP and MBP), SEQ ID NO: 31 (Escherichia coli, UniProt P0AEX9); experiment: Maltose titration of FRET sensor CMY-QI; conditions: range between 10 and 90% saturation
T6 construct: made in house; host or cells: E. coli JM109 (DE3)
Procedure: as §1, §2

[7] = molecular target: T7, SBP (sucrose binding protein; MBP mutant Asp14Leu, Lys15Phe, Trp62Tyr, Glu111Tyr) fusion protein CSY-BII (Escherichia coli, UniProt P0AEX9, D40L/E137Y/K41F/W88Y); experiment: Sucrose and maltose titration of FRET sensor CSY-BII; conditions: for Quantification range: range between 10 and 90% saturation
T7 construct: SBP = engineered MBP made on pMALc2x template; expressed in E. coli JM109(DE3), purified
Procedure: as §1, §2, §6, §7

[8] = molecular target: T8, MBP (maltose binding protein) fusion protein CMY-LH variant CMY-LH/W62H (Trp62His in MBP), SEQ ID NO: 34 (Escherichia coli, UniProt P0AEX9, W88H); experiment: Maltose titration and sugar specificity of FRET sensor CMY-LH/W62H; conditions: range between 10 and 90% saturation
T8 construct: made in house; host or cells: E. coli JM109 (DE3)
Procedure: as §1, §2

[9] = molecular target: T9, MBP (maltose binding protein) fusion protein CMY-LH variant CMY-LH/W62A (Trp62Ala in MBP), SEQ ID NO: 33 (Escherichia coli, UniProt P0AEX9, W88A); experiment: Maltose titration of FRET sensor CMY-LH/W62A; conditions: range between 10 and 90% saturation
T9 construct: made in house; host or cells: E. coli JM109 (DE3)
Procedure: as §1, §2

[10] = molecular target: T10, MBP (maltose binding protein) fusion protein CMY-B (ECFP-MBP-EYFP) (Escherichia coli, UniProt P0AEX9); experiment: Maltose response of FRET sensor CMY-B; conditions: in words; control for yeast imaging, 10 mM maltose
T10 construct: mature MBP from pMALc2x; expressed in E. coli JM109(DE3), purified
Procedure: as §1, §2

[11] = molecular target: T11, MBP (maltose binding protein) fusion protein CMY-0 (ECFP-MBP-EYFP without connecting peptides) (Escherichia coli, UniProt P0AEX9); experiment: Maltose titration of FRET sensor CMY-0 (fluorescence ratio 530/480 nm); conditions: range between 10 and 90% saturation
T11 construct: mature MBP amplified from pMALc2x (NEB); expressed in E. coli JM109(DE3), purified
Procedure: as §1, §2

[12] = molecular target: T12, MBP (maltose binding protein) fusion protein CMY-LH variant CMY-LH/W62L (Trp62Leu in MBP), SEQ ID NO: 35 (Escherichia coli, UniProt P0AEX9, W88L); experiment: Maltose titration and sugar specificity of FRET sensor CMY-LH/W62L; conditions: range between 10 and 90% saturation
T12 construct: made in house; host or cells: E. coli JM109 (DE3)
Procedure: as §1, §2

[13] = molecular target: T13, SBP (sucrose binding protein; MBP mutant Asp14Leu, Lys15Phe, Trp62Tyr, Glu111Tyr) fusion protein CSY-B (Escherichia coli, UniProt P0AEX9, D40L/E137Y/K41F/W88Y); experiment: Sucrose and maltose titration of FRET sensor CSY-B; conditions: for Quantification range: range between 10 and 90% saturation
T13 construct: SBP = engineered MBP made on pMALc2x template; expressed in E. coli JM109(DE3), purified
Procedure: as §1, §2, §6, §7

[14] = molecular target: T14, MBP (maltose binding protein) fusion protein CMY-BII (ECFP-SR-MBP-GS-EYFP) (Escherichia coli, UniProt P0AEX9); experiment: Maltose titration of FRET sensor CMY-BII; conditions: range between 10 and 90% saturation
T14 construct: mature MBP from pMALc2x; expressed in E. coli JM109(DE3), purified
Procedure: as §1, §2

[15] = ratio(10 mM) minus ratioapo, saturating sugar

Which results are given for OC[C@H]1OC(O)[C@H](O)[C@H](O)[C@@H]1O (some centres unmarked) [allose]?
Quantification range ([1]; allose, range between 10 and 90% saturation): 0.04 to 2.81 µM; affinity (substrate specificity) [2]: very high affinity

Which results are given for OC1OC[C@H](O)[C@H](O)[C@H]1O (some centres unmarked) [arabinose]?
Kd [3]: 0.36 ± 0.01 µM; Quantification range ([3]; arabinose, range between 10 and 90% saturation): 0.05 to 2.74 µM; Δratio ([3]; arabinose, ratio(10 mM) minus ratioapo, saturating sugar): 0.29

With OC[C@H]1OC(O)[C@H](O)[C@@H](O)[C@@H]1O (stereo partly drawn) [d-glucose] as the molecule, how does the “affinity (substrate specificity)” value [4] read?
The value was “low level of affinity”.

With OC[C@H]1OC(O)[C@H](O)[C@@H](O)[C@H]1O (some centres unmarked) [galactose] as the molecule, how does the “affinity (substrate specificity)” value [3] read?
The value was “very high affinity”.

For OC[C@H]1O[C@@H](O[C@H]2[C@H](O)[C@@H](O)C(O)O[C@@H]2CO)[C@H](O)[C@@H](O)[C@H]1O (some centres unmarked) [lactose], which “affinity (substrate specificity)” value [3] is on record?
Its value is “low affinity”.

Which Quantification range ([4]; maltose, range between 10 and 90% saturation) does the source give for OC[C@H]1O[C@H](O[C@H]2[C@H](O)[C@@H](O)C(O)O[C@@H]2CO)[C@H](O)[C@@H](O)[C@@H]1O (some centres unmarked) [maltose] here?
Its Quantification range is 0.2 to 13.2 µM.

What about the Quantification range [5] of the same molecule?
Its Quantification range is 80-5,080 μM.

What about the Quantification range [6] of the same molecule?
Its Quantification range is 0.2 to 15.1 µM.

What about the Quantification range [7] of the same molecule?
Its Quantification range is 155-3,800 μM.

And the Quantification range [8]?
Its Quantification range is 5 to 325 µM.

What about the Quantification range [9] of the same molecule?
The Quantification range was 31-2,080 μM.

And the sensitivity to maltose [10]?
Its sensitivity to maltose is “no sensitivity”.

What about the Quantification range [11] of the same molecule?
The Quantification range was 0.5 to 11.2 µM.

And the Quantification range [12]?
Its Quantification range is 10 to 650 µM.

And the Quantification range [13]?
Its Quantification range is 120-9,500 μM.

What about the Quantification range [14] of the same molecule?
Its Quantification range is 0.3 to 13.3 µM.

OC[C@H]1O[C@@](CO)(O[C@H]2O[C@H](CO)[C@@H](O)[C@H](O)[C@H]2O)[C@@H](O[C@H]2O[C@H](CO)[C@@H](O)[C@H](O)[C@H]2O)[C@@H]1O [melezitose] was tested. Which “affinity (substrate specificity)” value [4] did it give?
Its value is “low level of affinity”.

For OC[C@H]1O[C@H](OC[C@H]2OC(O)[C@H](O)[C@@H](O)[C@@H]2O)[C@H](O)[C@@H](O)[C@H]1O (some centres unmarked) [melibiose], which “affinity (substrate specificity)” value [3] is on record?
The value was “low affinity”.

Which “affinity (substrate specificity)” value [3] does the source give for C[C@@H]1OC(O)[C@H](O)[C@H](O)[C@H]1O (some centres unmarked) [rhamnose] here?
The value was “low affinity”.

With OC1OC[C@@H](O)[C@@H](O)[C@H]1O (some centres unmarked) [ribose] as the molecule, how does the “affinity (substrate specificity)” value ([1]; in words, FIG. 12A, ribose at mM levels) read?
The value was “low affinity”.

And the Kd ([2]; ribose, 50% saturation)?
The Kd was 0.17 ± 0.01 µM.

What about the Quantification range ([2]; ribose, range between 10 and 90% saturation) of the same molecule?
Its Quantification range is 0.03 to 1.15 µM.

And the Δratio ([2]; ribose, ratio(10 mM) minus ratioapo, saturating sugar)?
The Δratio was −0.12.

What does the source list for OC[C@H]1O[C@@](CO)(O[C@H]2O[C@H](CO)[C@@H](O)[C@H](O)[C@H]2O)[C@@H](O)[C@@H]1O [sucrose]?
Kd [5]: 163 ± 3 µM; Kd, fold higher than previously reported results ([5]; compared to Guntas et al., PNAS, 102:11224, 2005): about 25 fold; Quantification range [5]: 17-1,560 μM; Δratio [5, 15]: 0.72; Kd [7]: 234 ± 18 µM; Quantification range [7]: 30-1,880 μM; Δratio [7, 15]: 0.14; Kd [13]: 286 ± 16 µM; Quantification range [13]: 20-3,700 μM; Δratio [13, 15]: −0.11

Which results are given for OC1OC[C@@H](O)[C@H](O)[C@H]1O (some centres unmarked) [xylose]?
affinity (substrate specificity) [3]: low affinity; affinity (substrate specificity) [2]: significant affinity
